# PMC12670405, “Second-Generation AURKA-Targeting PROTACs: Structural Optimization toward in Vivo Degradation in Neuroblastoma” (Journal of Medicinal Chemistry, 2025)
# How the values were obtained:
# Assay in all cases: KINOMEscan scanMAX
# Type in all cases: binding
# Details in all cases: read-out: Percent Control
# PDGFRB = target: T1, PDGFRB (Homo sapiens, UniProt P09619)
# T1 construct: purchased Eurofins Discovery (DiscoverX KINOMEscan scanMAX)
# Protocol: (§1) The kinome-wide binding assay was performed by Eurofins Discovery using the scanMAX screening platform. More information can be found on the Eurofins Discovery Web site.
# BLK = target: T2, BLK (Homo sapiens, UniProt P51451)
# T2 construct: purchased Eurofins Discovery (DiscoverX KINOMEscan scanMAX)
# Protocol: as §1
# PIK3CA(M1043I) = target: T3, PIK3CA(M1043I) (Homo sapiens, UniProt P42336, M1043I)
# T3 construct: purchased Eurofins Discovery (DiscoverX KINOMEscan scanMAX)
# Protocol: as §1
# PIK3CG = target: T4, PIK3CG (Homo sapiens, UniProt P48736)
# T4 construct: purchased Eurofins Discovery (DiscoverX KINOMEscan scanMAX)
# Protocol: as §1
# MEK3 = target: T5, MEK3 (Homo sapiens, UniProt P46734)
# T5 construct: purchased Eurofins Discovery (DiscoverX KINOMEscan scanMAX)
# Protocol: as §1
# EGFR(S752-I759del) = target: T6, EGFR(S752-I759del) (Homo sapiens, UniProt P00533, DEL752-759)
# T6 construct: purchased Eurofins Discovery (DiscoverX KINOMEscan scanMAX)
# Protocol: as §1
# DRAK2 = target: T7, DRAK2 (Homo sapiens, UniProt O94768)
# T7 construct: purchased Eurofins Discovery (DiscoverX KINOMEscan scanMAX)
# Protocol: as §1
# PKN1 = target: T8, PKN1 (Homo sapiens, UniProt Q16512)
# T8 construct: purchased Eurofins Discovery (DiscoverX KINOMEscan scanMAX)
# Protocol: as §1
# [1] = target: T9, RSK4(Kin.Dom.2-C-terminal) (Homo sapiens, UniProt Q9UK32)
# T9 construct: RSK4(Kin.Dom.2-C-terminal); purchased Eurofins Discovery (DiscoverX KINOMEscan scanMAX)
# Protocol: as §1
# ERK1 = target: T10, ERK1 (Homo sapiens, UniProt P27361)
# T10 construct: purchased Eurofins Discovery (DiscoverX KINOMEscan scanMAX)
# Protocol: as §1
# EPHA4 = target: T11, EPHA4 (Homo sapiens, UniProt P54764)
# T11 construct: purchased Eurofins Discovery (DiscoverX KINOMEscan scanMAX)
# Protocol: as §1
# [2] = target: T12, ABL1(Y253F)-phosphorylated (Homo sapiens, UniProt P00519, Y253F)
# T12 construct: purchased Eurofins Discovery (DiscoverX KINOMEscan scanMAX)
# Protocol: as §1
# WNK4 = target: T13, WNK4 (Homo sapiens, UniProt Q96J92)
# T13 construct: purchased Eurofins Discovery (DiscoverX KINOMEscan scanMAX)
# Protocol: as §1
# MAP3K3 = target: T14, MAP3K3 (Homo sapiens, UniProt Q99759)
# T14 construct: purchased Eurofins Discovery (DiscoverX KINOMEscan scanMAX)
# Protocol: as §1
# MAP4K2 = target: T15, MAP4K2 (Homo sapiens, UniProt Q12851)
# T15 construct: purchased Eurofins Discovery (DiscoverX KINOMEscan scanMAX)
# Protocol: as §1
# WEE2 = target: T16, WEE2 (Homo sapiens, UniProt P0C1S8)
# T16 construct: purchased Eurofins Discovery (DiscoverX KINOMEscan scanMAX)
# Protocol: as §1
# MUSK = target: T17, MUSK (Homo sapiens, UniProt O15146)
# T17 construct: purchased Eurofins Discovery (DiscoverX KINOMEscan scanMAX)
# Protocol: as §1
# NEK5 = target: T18, NEK5 (Homo sapiens, UniProt Q6P3R8)
# T18 construct: purchased Eurofins Discovery (DiscoverX KINOMEscan scanMAX)
# Protocol: as §1
# CDK2 = target: T19, CDK2 (Homo sapiens, UniProt P24941)
# T19 construct: purchased Eurofins Discovery (DiscoverX KINOMEscan scanMAX)
# Protocol: as §1
# PIK3CA(E545K) = target: T20, PIK3CA(E545K) (Homo sapiens, UniProt P42336, E545K)
# T20 construct: purchased Eurofins Discovery (DiscoverX KINOMEscan scanMAX)
# Protocol: as §1
# KIT(D816V) = target: T21, KIT(D816V) (Homo sapiens, UniProt P10721, D816V)
# T21 construct: purchased Eurofins Discovery (DiscoverX KINOMEscan scanMAX)
# Protocol: as §1
# ACVR1B = target: T22, ACVR1B (Homo sapiens, UniProt P36896)
# T22 construct: purchased Eurofins Discovery (DiscoverX KINOMEscan scanMAX)
# Protocol: as §1
# [3] = target: T23, RSK3(Kin.Dom.2-C-terminal) (Homo sapiens, UniProt Q15349)
# T23 construct: RSK3(Kin.Dom.2-C-terminal); purchased Eurofins Discovery (DiscoverX KINOMEscan scanMAX)
# Protocol: as §1
# MINK = target: T24, MINK (Homo sapiens, UniProt Q8N4C8)
# T24 construct: purchased Eurofins Discovery (DiscoverX KINOMEscan scanMAX)
# Protocol: as §1
# MKNK1 = target: T25, MKNK1 (Homo sapiens, UniProt Q9BUB5)
# T25 construct: purchased Eurofins Discovery (DiscoverX KINOMEscan scanMAX)
# Protocol: as §1
# TIE1 = target: T26, TIE1 (Homo sapiens, UniProt P35590)
# T26 construct: purchased Eurofins Discovery (DiscoverX KINOMEscan scanMAX)
# Protocol: as §1
# MEK2 = target: T27, MEK2 (Homo sapiens, UniProt P36507)
# T27 construct: purchased Eurofins Discovery (DiscoverX KINOMEscan scanMAX)
# Protocol: as §1
# EGFR = target: T28, EGFR (Homo sapiens, UniProt P00533)
# T28 construct: purchased Eurofins Discovery (DiscoverX KINOMEscan scanMAX)
# Protocol: as §1
# CSF1R = target: T29, CSF1R (Homo sapiens, UniProt P07333)
# T29 construct: purchased Eurofins Discovery (DiscoverX KINOMEscan scanMAX)
# Protocol: as §1
# CDK3 = target: T30, CDK3 (Homo sapiens, UniProt Q00526)
# T30 construct: purchased Eurofins Discovery (DiscoverX KINOMEscan scanMAX)
# Protocol: as §1
# EGFR(T790M) = target: T31, EGFR(T790M) (Homo sapiens, UniProt P00533, T790M)
# T31 construct: purchased Eurofins Discovery (DiscoverX KINOMEscan scanMAX)
# Protocol: as §1
# TSSK1B = target: T32, TSSK1B (Homo sapiens, UniProt Q9BXA7)
# T32 construct: purchased Eurofins Discovery (DiscoverX KINOMEscan scanMAX)
# Protocol: as §1
# ULK3 = target: T33, ULK3 (Homo sapiens, UniProt Q6PHR2)
# T33 construct: purchased Eurofins Discovery (DiscoverX KINOMEscan scanMAX)
# Protocol: as §1
# T22 sequence (P36896 24-505): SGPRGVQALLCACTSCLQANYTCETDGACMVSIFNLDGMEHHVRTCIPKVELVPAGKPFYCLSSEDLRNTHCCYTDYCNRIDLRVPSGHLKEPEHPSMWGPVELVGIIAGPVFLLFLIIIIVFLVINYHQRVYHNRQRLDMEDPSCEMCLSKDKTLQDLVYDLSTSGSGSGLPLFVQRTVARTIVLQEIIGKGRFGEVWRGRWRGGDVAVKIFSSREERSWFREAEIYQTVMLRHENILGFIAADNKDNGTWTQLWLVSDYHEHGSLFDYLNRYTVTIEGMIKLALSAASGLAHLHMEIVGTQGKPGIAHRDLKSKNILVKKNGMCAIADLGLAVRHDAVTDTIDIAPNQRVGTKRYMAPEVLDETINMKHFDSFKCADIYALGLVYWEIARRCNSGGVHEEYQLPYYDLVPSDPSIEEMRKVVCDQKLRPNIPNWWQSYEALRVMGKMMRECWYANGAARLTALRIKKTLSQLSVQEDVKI
# T11 sequence (P54764 20-986): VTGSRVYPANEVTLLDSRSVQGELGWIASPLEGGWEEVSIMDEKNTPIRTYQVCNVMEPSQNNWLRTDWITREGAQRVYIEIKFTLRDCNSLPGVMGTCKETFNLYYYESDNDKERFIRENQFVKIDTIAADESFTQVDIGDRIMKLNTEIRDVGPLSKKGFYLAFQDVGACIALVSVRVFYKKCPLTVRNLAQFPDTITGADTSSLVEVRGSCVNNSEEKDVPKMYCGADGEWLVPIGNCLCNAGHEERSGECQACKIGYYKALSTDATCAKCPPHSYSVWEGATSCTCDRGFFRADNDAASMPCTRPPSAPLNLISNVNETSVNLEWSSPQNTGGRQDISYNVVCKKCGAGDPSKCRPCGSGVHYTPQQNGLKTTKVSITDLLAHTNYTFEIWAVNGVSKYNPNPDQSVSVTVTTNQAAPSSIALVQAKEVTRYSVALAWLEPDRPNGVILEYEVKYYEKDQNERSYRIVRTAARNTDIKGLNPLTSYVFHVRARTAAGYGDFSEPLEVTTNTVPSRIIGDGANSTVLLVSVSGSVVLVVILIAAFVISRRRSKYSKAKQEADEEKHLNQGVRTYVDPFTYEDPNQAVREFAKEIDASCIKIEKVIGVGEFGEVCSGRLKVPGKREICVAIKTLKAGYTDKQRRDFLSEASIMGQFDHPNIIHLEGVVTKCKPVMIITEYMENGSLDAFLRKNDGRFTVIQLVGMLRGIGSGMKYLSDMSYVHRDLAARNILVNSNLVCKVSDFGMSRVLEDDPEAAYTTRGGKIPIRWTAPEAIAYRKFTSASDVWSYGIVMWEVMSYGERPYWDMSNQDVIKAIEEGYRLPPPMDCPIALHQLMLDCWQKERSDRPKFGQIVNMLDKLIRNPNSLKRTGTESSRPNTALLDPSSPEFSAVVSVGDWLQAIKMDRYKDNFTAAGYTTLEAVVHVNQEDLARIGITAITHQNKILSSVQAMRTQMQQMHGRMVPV
# T25 sequence (Q9BUB5 whole entry): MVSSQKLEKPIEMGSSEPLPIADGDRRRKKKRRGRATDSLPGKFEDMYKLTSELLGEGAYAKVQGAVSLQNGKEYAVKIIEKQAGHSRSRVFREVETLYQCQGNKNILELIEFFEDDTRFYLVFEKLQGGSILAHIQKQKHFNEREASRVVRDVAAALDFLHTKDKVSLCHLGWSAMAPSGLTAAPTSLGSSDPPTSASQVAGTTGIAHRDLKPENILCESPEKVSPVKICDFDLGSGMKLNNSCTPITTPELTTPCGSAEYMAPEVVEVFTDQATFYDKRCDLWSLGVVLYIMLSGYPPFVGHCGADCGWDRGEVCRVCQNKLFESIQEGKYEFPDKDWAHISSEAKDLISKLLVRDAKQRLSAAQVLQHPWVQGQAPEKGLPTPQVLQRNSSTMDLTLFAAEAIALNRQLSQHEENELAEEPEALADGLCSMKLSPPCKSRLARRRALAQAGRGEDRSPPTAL
# T8 sequence (Q16512 whole entry): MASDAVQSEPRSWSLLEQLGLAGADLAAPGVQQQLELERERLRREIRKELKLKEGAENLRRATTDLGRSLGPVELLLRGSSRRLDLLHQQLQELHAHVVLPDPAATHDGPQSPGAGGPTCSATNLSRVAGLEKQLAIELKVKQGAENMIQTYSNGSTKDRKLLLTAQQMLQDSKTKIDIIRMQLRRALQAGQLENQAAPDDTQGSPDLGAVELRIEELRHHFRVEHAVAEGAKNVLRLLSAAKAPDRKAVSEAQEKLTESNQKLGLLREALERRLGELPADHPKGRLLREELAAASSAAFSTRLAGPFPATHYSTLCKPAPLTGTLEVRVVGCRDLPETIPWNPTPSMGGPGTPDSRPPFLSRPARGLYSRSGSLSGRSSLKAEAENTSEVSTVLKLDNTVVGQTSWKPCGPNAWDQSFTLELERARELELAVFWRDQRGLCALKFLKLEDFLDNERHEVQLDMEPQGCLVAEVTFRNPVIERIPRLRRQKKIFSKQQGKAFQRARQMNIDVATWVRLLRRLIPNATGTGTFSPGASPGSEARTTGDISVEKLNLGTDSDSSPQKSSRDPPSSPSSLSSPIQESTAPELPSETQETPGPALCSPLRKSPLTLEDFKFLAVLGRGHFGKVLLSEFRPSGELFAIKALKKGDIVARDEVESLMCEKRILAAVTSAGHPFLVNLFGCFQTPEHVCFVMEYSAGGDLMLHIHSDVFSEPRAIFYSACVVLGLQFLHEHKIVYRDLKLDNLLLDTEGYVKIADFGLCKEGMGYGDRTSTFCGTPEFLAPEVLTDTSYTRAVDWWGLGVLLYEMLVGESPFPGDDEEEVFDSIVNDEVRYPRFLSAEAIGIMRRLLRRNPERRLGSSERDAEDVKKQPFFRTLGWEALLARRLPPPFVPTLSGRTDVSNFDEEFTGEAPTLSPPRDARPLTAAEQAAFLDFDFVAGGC
# T21 sequence (P10721 26-976 D816V): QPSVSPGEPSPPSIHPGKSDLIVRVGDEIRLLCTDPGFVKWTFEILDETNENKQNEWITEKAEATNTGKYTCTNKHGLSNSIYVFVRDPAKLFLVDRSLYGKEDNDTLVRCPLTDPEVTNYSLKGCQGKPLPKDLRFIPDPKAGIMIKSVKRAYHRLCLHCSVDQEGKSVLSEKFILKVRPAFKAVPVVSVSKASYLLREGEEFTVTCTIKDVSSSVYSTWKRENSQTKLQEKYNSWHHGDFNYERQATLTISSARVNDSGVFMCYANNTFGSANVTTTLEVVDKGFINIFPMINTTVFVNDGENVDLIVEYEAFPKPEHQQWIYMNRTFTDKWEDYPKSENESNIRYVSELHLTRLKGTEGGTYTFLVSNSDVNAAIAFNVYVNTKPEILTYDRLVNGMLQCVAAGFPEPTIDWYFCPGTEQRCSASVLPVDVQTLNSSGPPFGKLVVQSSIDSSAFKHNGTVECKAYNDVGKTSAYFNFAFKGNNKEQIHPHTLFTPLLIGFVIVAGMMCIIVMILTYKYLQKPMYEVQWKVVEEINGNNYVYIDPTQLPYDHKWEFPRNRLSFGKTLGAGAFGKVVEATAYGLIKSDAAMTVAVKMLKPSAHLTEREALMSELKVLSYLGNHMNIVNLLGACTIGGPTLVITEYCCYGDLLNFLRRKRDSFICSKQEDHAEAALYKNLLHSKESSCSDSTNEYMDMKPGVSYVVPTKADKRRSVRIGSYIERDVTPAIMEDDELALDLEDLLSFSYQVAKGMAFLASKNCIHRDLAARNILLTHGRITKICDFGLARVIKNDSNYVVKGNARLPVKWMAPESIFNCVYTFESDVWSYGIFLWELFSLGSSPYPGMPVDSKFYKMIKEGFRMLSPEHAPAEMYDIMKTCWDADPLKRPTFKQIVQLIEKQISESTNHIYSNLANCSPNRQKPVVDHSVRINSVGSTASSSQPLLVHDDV
# T7 sequence (O94768 whole entry): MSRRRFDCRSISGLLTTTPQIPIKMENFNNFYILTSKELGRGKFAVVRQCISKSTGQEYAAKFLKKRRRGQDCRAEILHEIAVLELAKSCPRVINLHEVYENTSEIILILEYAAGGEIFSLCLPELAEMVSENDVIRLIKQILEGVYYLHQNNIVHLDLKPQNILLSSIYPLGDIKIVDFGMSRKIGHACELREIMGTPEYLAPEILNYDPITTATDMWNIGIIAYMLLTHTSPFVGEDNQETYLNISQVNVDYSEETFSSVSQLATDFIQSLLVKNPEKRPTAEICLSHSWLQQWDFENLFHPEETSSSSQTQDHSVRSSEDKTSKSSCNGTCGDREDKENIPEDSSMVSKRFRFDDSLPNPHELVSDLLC
# T30 sequence (Q00526 whole entry): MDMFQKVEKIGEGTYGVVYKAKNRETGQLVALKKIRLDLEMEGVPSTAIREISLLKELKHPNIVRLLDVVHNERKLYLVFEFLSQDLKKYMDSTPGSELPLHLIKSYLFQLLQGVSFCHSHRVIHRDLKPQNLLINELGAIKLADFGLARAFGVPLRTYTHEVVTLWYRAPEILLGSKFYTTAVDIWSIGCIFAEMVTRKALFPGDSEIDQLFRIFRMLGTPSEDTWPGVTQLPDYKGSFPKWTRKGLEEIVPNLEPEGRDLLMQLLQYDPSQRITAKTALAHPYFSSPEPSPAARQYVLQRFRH
# T23 sequence (Q15349 389-733 limits assumed): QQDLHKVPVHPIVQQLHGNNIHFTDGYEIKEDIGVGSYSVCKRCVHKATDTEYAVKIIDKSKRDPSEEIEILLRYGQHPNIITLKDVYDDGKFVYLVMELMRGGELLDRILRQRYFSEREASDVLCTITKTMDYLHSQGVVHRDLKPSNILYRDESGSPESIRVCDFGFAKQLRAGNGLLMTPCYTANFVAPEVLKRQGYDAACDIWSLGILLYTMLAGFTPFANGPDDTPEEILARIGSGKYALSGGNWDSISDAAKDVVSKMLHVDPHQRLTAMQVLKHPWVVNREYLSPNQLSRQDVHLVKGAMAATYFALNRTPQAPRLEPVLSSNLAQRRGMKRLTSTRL
structure (smiles),measurement,setting,value
Cc1cc(Nc2ccc(F)c(CC3(C(=O)N4CCC(F)(CN5CCN(c6ccc(N7CCC(=O)NC7=O)cn6)CC5)CC4)CCN(Cc4cccc(Cl)c4F)CC3)n2)n[nH]1 [SK5527],remaining binding at 0.1 µM,PDGFRB; 100 nM,100%
same,remaining binding at 1 µM,PDGFRB; 1000 nM,63%
same,remaining binding at 0.1 µM,BLK; 100 nM,97%
same,remaining binding at 1 µM,BLK; 1000 nM,45%
same,remaining binding at 0.1 µM,PIK3CA(M1043I); 100 nM,100%
same,remaining binding at 1 µM,PIK3CA(M1043I); 1000 nM,100%
same,remaining binding at 0.1 µM,PIK3CG; 100 nM,91%
same,remaining binding at 1 µM,PIK3CG; 1000 nM,94%
same,remaining binding at 0.1 µM,MEK3; 100 nM,100%
same,remaining binding at 1 µM,MEK3; 1000 nM,82%
same,remaining binding at 0.1 µM,EGFR(S752-I759del); 100 nM,98%
same,remaining binding at 1 µM,EGFR(S752-I759del); 1000 nM,100%
same,remaining binding at 0.1 µM,DRAK2; 100 nM,100%
same,remaining binding at 1 µM,DRAK2; 1000 nM,100%
same,remaining binding at 0.1 µM,PKN1; 100 nM,100%
same,remaining binding at 1 µM,PKN1; 1000 nM,89%
same,remaining binding at 0.1 µM,[1]; 100 nM,75%
same,remaining binding at 1 µM,[1]; 1000 nM,80%
same,remaining binding at 0.1 µM,ERK1; 100 nM,94%
same,remaining binding at 1 µM,ERK1; 1000 nM,94%
same,remaining binding at 0.1 µM,EPHA4; 100 nM,91%
same,remaining binding at 1 µM,EPHA4; 1000 nM,100%
same,remaining binding at 0.1 µM,[2]; 100 nM,63%
same,remaining binding at 1 µM,[2]; 1000 nM,36%
same,remaining binding at 0.1 µM,WNK4; 100 nM,80%
same,remaining binding at 1 µM,WNK4; 1000 nM,95%
same,remaining binding at 0.1 µM,MAP3K3; 100 nM,100%
same,remaining binding at 1 µM,MAP3K3; 1000 nM,96%
same,remaining binding at 0.1 µM,MAP4K2; 100 nM,88%
same,remaining binding at 1 µM,MAP4K2; 1000 nM,95%
same,remaining binding at 0.1 µM,WEE2; 100 nM,79%
same,remaining binding at 1 µM,WEE2; 1000 nM,88%
same,remaining binding at 0.1 µM,MUSK; 100 nM,97%
same,remaining binding at 1 µM,MUSK; 1000 nM,95%
same,remaining binding at 0.1 µM,NEK5; 100 nM,100%
same,remaining binding at 1 µM,NEK5; 1000 nM,100%
same,remaining binding at 0.1 µM,CDK2; 100 nM,100%
same,remaining binding at 1 µM,CDK2; 1000 nM,94%
same,remaining binding at 0.1 µM,PIK3CA(E545K); 100 nM,93%
same,remaining binding at 1 µM,PIK3CA(E545K); 1000 nM,71%
same,remaining binding at 0.1 µM,KIT(D816V); 100 nM,93%
same,remaining binding at 1 µM,KIT(D816V); 1000 nM,97%
same,remaining binding at 0.1 µM,ACVR1B; 100 nM,100%
same,remaining binding at 1 µM,ACVR1B; 1000 nM,100%
same,remaining binding at 0.1 µM,[3]; 100 nM,88%
same,remaining binding at 1 µM,[3]; 1000 nM,92%
same,remaining binding at 0.1 µM,MINK; 100 nM,98%
same,remaining binding at 1 µM,MINK; 1000 nM,86%
same,remaining binding at 0.1 µM,MKNK1; 100 nM,84%
same,remaining binding at 1 µM,MKNK1; 1000 nM,92%
same,remaining binding at 0.1 µM,TIE1; 100 nM,89%
same,remaining binding at 1 µM,TIE1; 1000 nM,68%
same,remaining binding at 0.1 µM,MEK2; 100 nM,80%
same,remaining binding at 1 µM,MEK2; 1000 nM,81%
same,remaining binding at 0.1 µM,EGFR; 100 nM,91%
same,remaining binding at 1 µM,EGFR; 1000 nM,82%
same,remaining binding at 0.1 µM,CSF1R; 100 nM,97%
same,remaining binding at 1 µM,CSF1R; 1000 nM,90%
same,remaining binding at 0.1 µM,CDK3; 100 nM,83%
same,remaining binding at 1 µM,CDK3; 1000 nM,87%
same,remaining binding at 0.1 µM,EGFR(T790M); 100 nM,92%
same,remaining binding at 1 µM,EGFR(T790M); 1000 nM,91%
same,remaining binding at 0.1 µM,TSSK1B; 100 nM,100%
same,remaining binding at 1 µM,TSSK1B; 1000 nM,100%
same,remaining binding at 0.1 µM,ULK3; 100 nM,85%
same,remaining binding at 1 µM,ULK3; 1000 nM,86%
